Data from PubChem BioAssay AID330 (DTP/NCI, 2004).
Several values for one entry are separate records, joined by “and”; a condition that tells them apart may be missing. Equal values may be shown once. Toxic doses and inconclusive results are not listed. Square brackets hold non-standard residues; d marks the D form. Peptide text beside a SMILES is read from it. ξ: configuration not given here. ξPhe(4-N(CH2CH2Cl)2) = NC(Cc1ccc(N(CCCl)CCCl)cc1)C(=O)O; Aad = N[CH](CCCC(=O)O)C(=O)O

Tested on: P388 leukemia ip, CD2F1 mice, survival T/C
Assay: NCI In Vivo Anticancer Drug Screen. Data for tumor model P388 Leukemia (intraperitoneal) in CD2F1 (CDF1) mice
Conditions: endpoint: median survival time, higher = longer survival
In short: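 Mice carrying the transplanted tumor received test compound or vehicle. Survival was recorded in each group, and the value is the treated-group measurement divided by that of the vehicle-treated control group.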

[1] = dose: 100.0 mg/kg/injection, schedule: Q04DX003 (ip), vehicle: saline with Tween-80
[2] = dose: 200.0 mg/kg/injection, schedule: Q04DX003 (ip), vehicle: saline with Tween-80
[3] = dose: 400.0 mg/kg/injection, schedule: Q04DX003 (ip), vehicle: saline with Tween-80
[4] = dose: 50.0 mg/kg/injection, schedule: Q01DX009 (ip), vehicle: saline with Tween-80
[5] = dose: 100.0 mg/kg/injection, schedule: Q01DX009 (ip), vehicle: saline with Tween-80
[6] = dose: 200.0 mg/kg/injection, schedule: Q01DX009 (ip), vehicle: saline with Tween-80
[7] = dose: 60.0 mg/kg/injection, schedule: Q01DX005 (ip), vehicle: saline with Tween-80
[8] = dose: 120.0 mg/kg/injection, schedule: Q01DX005 (ip), vehicle: saline with Tween-80
[9] = dose: 240.0 mg/kg/injection, schedule: Q01DX005 (ip), vehicle: saline with Tween-80
[10] = dose: 50.0 mg/kg/injection, schedule: Q01DX005 (ip), vehicle: saline with Tween-80
[11] = dose: 100.0 mg/kg/injection, schedule: Q01DX005 (ip), vehicle: saline with Tween-80
[12] = dose: 200.0 mg/kg/injection, schedule: Q01DX005 (ip), vehicle: saline with Tween-80
[13] = dose: 50.0 mg/kg/injection, schedule: Q01DX005 (ip), vehicle: Klucel (hydroxypropylcellulose) (HPC)
[14] = dose: 60.0 mg/kg/injection, schedule: Q01DX005 (ip), vehicle: Klucel (hydroxypropylcellulose) (HPC)
[15] = dose: 100.0 mg/kg/injection, schedule: Q01DX005 (ip), vehicle: Klucel (hydroxypropylcellulose) (HPC)
[16] = dose: 120.0 mg/kg/injection, schedule: Q01DX005 (ip), vehicle: Klucel (hydroxypropylcellulose) (HPC)
[17] = dose: 200.0 mg/kg/injection, schedule: Q01DX005 (ip), vehicle: Klucel (hydroxypropylcellulose) (HPC)
[18] = dose: 240.0 mg/kg/injection, schedule: Q01DX005 (ip), vehicle: Klucel (hydroxypropylcellulose) (HPC)
[19] = dose: 50.0 mg/kg/injection, schedule: Q01DX009 (ip), vehicle: Klucel (hydroxypropylcellulose) (HPC)
[20] = dose: 100.0 mg/kg/injection, schedule: Q01DX009 (ip), vehicle: Klucel (hydroxypropylcellulose) (HPC)
[21] = dose: 200.0 mg/kg/injection, schedule: Q01DX009 (ip), vehicle: Klucel (hydroxypropylcellulose) (HPC)
[22] = dose: 12.5 mg/kg/injection, schedule: Q01DX009 (ip), vehicle: saline
[23] = dose: 25.0 mg/kg/injection, schedule: Q01DX009 (ip), vehicle: saline
[24] = dose: 50.0 mg/kg/injection, schedule: Q04DX003 (ip), vehicle: saline with Tween-80

With `O=[n+]1c2c(n([O-])c3ccccc31)CCCCC2` the T/C [1] was 99 % of control, the T/C [2] was 101 % of control and the T/C [3] was 92 % of control.
For `O=C1SC(c2ccccc2)(c2ccccc2)c2cscc21`, the T/C (dose: 25.0 mg/kg/injection, schedule: Q01DX009 (ip), vehicle: saline with Tween-80) was 92 % of control, the T/C [4] was 94 % of control and the T/C [5] was 99 % of control. The T/C [6] was 90 % of control.
`C[Si](C)(C)CNC(=S)S` was tested, and the T/C [7] was 113 % of control, the T/C [8] was 115 % of control and the T/C [9] was 112 % of control.
In the case of `CCOC1(C2(O)CCCCC2)CC(C)=NO1` (configuration not stated), the T/C (dose: 100.0 mg/kg/injection, schedule: Q04DX002 (ip), vehicle: Klucel (hydroxypropylcellulose) (HPC)) is reported as 104 % of control, the T/C (dose: 200.0 mg/kg/injection, schedule: Q04DX002 (ip), vehicle: Klucel (hydroxypropylcellulose) (HPC)) is reported as 98 % of control and the T/C (dose: 400.0 mg/kg/injection, schedule: Q04DX002 (ip), vehicle: Klucel (hydroxypropylcellulose) (HPC)) is reported as 102 % of control.
For `CC(C)(C#CC(C)(C)OC(=O)Nc1ccccc1)OC(=O)Nc1ccccc1`, the T/C (dose: 100.0 mg/kg/injection, schedule: Q01DX009 (ip), vehicle: suspension in saline) was 95 % of control, the T/C (dose: 200.0 mg/kg/injection, schedule: Q01DX009 (ip), vehicle: suspension in saline) was 97 % of control and the T/C (dose: 400.0 mg/kg/injection, schedule: Q01DX009 (ip), vehicle: suspension in saline) was 107 % of control.
For `Nc1nnnn1-n1cccc1`, the T/C [10] was 103 % of control, the T/C [11] was 103 % of control and the T/C [12] was 103 % of control.
For `COC1OCCC(n2c(C)cc3c(N)ncnc32)C1O` (configuration not stated), the T/C [13] was 101 % of control and 102 % of control, the T/C [14] was 100 % of control and the T/C [15] was 100 % of control and 103 % of control. The T/C [16] was 103 % of control, the T/C [17] was 93 % of control and the T/C [18] was 96 % of control.
For `O=c1[nH]c(=O)c2cc([N+](=O)[O-])cc([N+](=O)[O-])c2[nH]1`, the T/C (dose: 50.0 mg/kg/injection, schedule: Q04DX003 (ip), vehicle: saline) was 118 % of control and the T/C (dose: 100.0 mg/kg/injection, schedule: Q04DX003 (ip), vehicle: saline) was 89 % of control.
With `O=c1c2c([nH]c3c1ccc1[nH]c4c(c(=O)c13)CCCC4)CCCC2` the T/C [4] was 90 % of control, the T/C [5] was 91 % of control and the T/C [6] was 97 % of control.
In the case of `CC(SC(=O)c1ccccc1)(SC(=O)c1ccccc1)c1ccccc1`, the T/C [19] is reported as 94 % of control, the T/C [20] is reported as 95 % of control and the T/C [21] is reported as 93 % of control.
In the case of `C[N+]1(C)Cc2ccccc2C1`, the T/C [22] is reported as 105 % of control and the T/C [23] is reported as 108 % of control.
`N#CN.[Pb]` was tested, and the T/C (dose: 25.0 mg/kg/injection, schedule: Q01DX005 (ip), vehicle: Klucel (hydroxypropylcellulose) (HPC)) was 115 % of control and 94 % of control, the T/C [13] was 101 % of control (2×) and 104 % of control and the T/C [15] was 107 % of control and 109 % of control and 110 % of control. For the same compound, the T/C [17] was 111 % of control.
In the case of `O=P1(NC23CC4CC(CC(C4)C2)C3)OC(CCl)=NC1c1ccc(C2N=C(CCl)OP2(=O)NC23CC4CC(CC(C4)C2)C3)cc1` (configuration not stated), the T/C [7] is reported as 98 % of control, the T/C [8] is reported as 98 % of control and the T/C [9] is reported as 98 % of control.
For `CCOc1ccc(Cc2nc3c([nH]2)c(=O)n(C)c(=O)n3C)cc1OCC`, the T/C [24] was 104 % of control, the T/C [1] was 103 % of control and the T/C [2] was 113 % of control and 95 % of control.
With `CC1C[P+](c2ccccc2)(c2ccccc2)Cc2ccccc21` (configuration not stated) the T/C (dose: 6.25 mg/kg/injection, schedule: Q01DX001 (ip), vehicle: saline) was 101 % of control and 105 % of control and 108 % of control and the T/C (dose: 12.5 mg/kg/injection, schedule: Q01DX001 (ip), vehicle: saline) was 101 % of control and 117 % of control.
With `CC[C@H](C)C(NC(=O)[C@H]1N=C(c2csc(C(O)Cc3ccccc3)n2)OC1C)C(=O)OC` (some centres not stated) the T/C [7] was 99 % of control, the T/C [8] was 98 % of control and the T/C [9] was 100 % of control.
With `COC1(OC)C(c2ccc([N+](=O)[O-])cc2)C(C#N)(C#N)C1(OC)OC` (configuration not stated) the T/C [14] was 100 % of control, the T/C [16] was 97 % of control and the T/C [18] was 99 % of control.
`Nc1nc(N)c2nn(C3OC(CO)C(O)C3O)nc2n1` (configuration not stated) was tested, and the T/C (dose: 25.0 mg/kg/injection, schedule: Q01DX001 (ip), vehicle: saline) was 103 % of control, the T/C (dose: 50.0 mg/kg/injection, schedule: Q01DX001 (ip), vehicle: saline) was 94 % of control and the T/C (dose: 100.0 mg/kg/injection, schedule: Q01DX001 (ip), vehicle: saline) was 105 % of control. The T/C (dose: 200.0 mg/kg/injection, schedule: Q01DX001 (ip), vehicle: saline) was 100 % of control and the T/C (dose: 400.0 mg/kg/injection, schedule: Q01DX001 (ip), vehicle: saline) was 100 % of control.
In the case of `CN(C)Cc1c(O)c2ccc(N(C)C)cc2[nH]c1=O`, the T/C [14] is reported as 92 % of control, the T/C [16] is reported as 90 % of control and the T/C [18] is reported as 96 % of control.
With `N#C/C1=C(\C#N)CCC2(C#N)C3C=CC(O3)C2(C#N)CC1` (configuration not stated) the T/C (dose: 3.12 mg/kg/injection, schedule: Q01DX009 (ip), vehicle: Klucel (hydroxypropylcellulose) (HPC)) was 103 % of control, the T/C (dose: 6.25 mg/kg/injection, schedule: Q01DX009 (ip), vehicle: Klucel (hydroxypropylcellulose) (HPC)) was 100 % of control and the T/C (dose: 12.5 mg/kg/injection, schedule: Q01DX009 (ip), vehicle: Klucel (hydroxypropylcellulose) (HPC)) was 100 % of control.
With `COc1ccc2c(c1)N(S(=O)(=O)c1ccc(C)cc1)C/C(=C\N1CCN(C)CC1)C2=O` the T/C [13] was 97 % of control, the T/C [15] was 108 % of control and the T/C [17] was 101 % of control.
`C[Si](C)(C)CN=P(c1ccccc1)(c1ccccc1)c1ccccc1` was tested, and the T/C [7] was 102 % of control, the T/C [8] was 103 % of control and the T/C [9] was 105 % of control.
For `CCOC(=O)C(Cc1ccc(N(CCCl)CCCl)cc1)NC(=O)C(CCC(=O)O)NC(=O)C(Cc1ccc(O)cc1)NC(=O)C(CCCC(=O)O)NC(=O)C(N)Cc1ccc(O)cc1` (configuration not stated) (H-Y[Aad]YE[ξPhe(4-N(CH2CH2Cl)2)]-OEt; configuration not given here), the T/C (dose: 25.0 mg/kg/injection, schedule: Q01DX009 (ip), vehicle: Klucel (hydroxypropylcellulose) (HPC)) was 162 % of control, the T/C [19] was 173 % of control and 186 % of control and the T/C [20] was 189 % of control and 230 % of control. For the same compound, the T/C [21] was 218 % of control and 220 % of control.
In the case of `c1ccc(P2CCc3[nH]c4ccccc4c3C2)cc1` (configuration not stated), the T/C [24] is reported as 101 % of control, the T/C [1] is reported as 105 % of control and 110 % of control and the T/C [2] is reported as 103 % of control and 120 % of control. The T/C [3] was 114 % of control.
For `Nc1ncnc2c1ncn2C(/C=N/Nc1ccccc1)OC(/C=N\Nc1ccccc1)CO` (configuration not stated), the T/C [10] was 106 % of control, the T/C [11] was 106 % of control and the T/C [12] was 107 % of control.
With `O=[N+]([O-])c1c(Sc2ncccn2)ncnc1Sc1ncccn1` the T/C (dose: 3.12 mg/kg/injection, schedule: Q01DX009 (ip), vehicle: saline with Tween-80) was 105 % of control, the T/C (dose: 6.25 mg/kg/injection, schedule: Q01DX009 (ip), vehicle: saline with Tween-80) was 115 % of control and the T/C (dose: 12.5 mg/kg/injection, schedule: Q01DX009 (ip), vehicle: saline with Tween-80) was 113 % of control. The T/C [22] was 114 % of control, the T/C [23] was 114 % of control and the T/C (dose: 50.0 mg/kg/injection, schedule: Q01DX009 (ip), vehicle: saline) was 108 % of control.
`FC(F)(F)C1=C(C(F)(F)F)OP23(OCCC(CO2)O3)O1` (configuration not stated) was tested, and the T/C (dose: 50.0 mg/kg/injection, schedule: Q04DX003 (ip), vehicle: Klucel (hydroxypropylcellulose) (HPC)) was 105 % of control, the T/C (dose: 100.0 mg/kg/injection, schedule: Q04DX003 (ip), vehicle: Klucel (hydroxypropylcellulose) (HPC)) was 108 % of control and the T/C (dose: 200.0 mg/kg/injection, schedule: Q04DX003 (ip), vehicle: Klucel (hydroxypropylcellulose) (HPC)) was 99 % of control. For the same compound, the T/C (dose: 400.0 mg/kg/injection, schedule: Q04DX003 (ip), vehicle: Klucel (hydroxypropylcellulose) (HPC)) was 103 % of control.
For `COC(=O)C1(C(=O)OC)O[C@@H](c2ccccc2)[C@H]2C(=O)N(C)C(=O)[C@H]21`, the T/C [14] was 99 % of control, the T/C [16] was 101 % of control and the T/C [18] was 110 % of control.
In the case of `NS(=O)(=O)c1ccc(N=NC2C(=O)N(C(=O)CC(=O)Nc3ccc(C(=O)O)cc3)N=C2c2ccccc2)cc1` (configuration not stated), the T/C [10] is reported as 97 % of control, the T/C [11] is reported as 92 % of control and the T/C [12] is reported as 90 % of control.
